# Experimental data from patent US11447533B2, “Antimicrobial and anticancer peptides and conjugates and compositions, methods, articles and kits relating thereto” (George Mason Research Foundation, Inc., priority 2018, dated 2022).
# Legend:
# [1] = system: Klebsiella pneumoniae (ATCC BAA-1705); assay: Antimicrobial efficacy against ESKAPE pathogens; assay type: cell-based; conditions: mammalian serum
# Method: (§1) Antimicrobial Studies. The phosphate buffers used for antimicrobial assays were supplemented with non-nitrogenous energy source, 0.1% (w/v) glucose. To conduct antimicrobial assays, bacterial strains were first suspended in respective buffers. E. coli (ATCC 25922) and B. cereus (ATCC 11778) were grown in MHB II up to OD600 nm˜1 and stored as frozen stock in 20% glycerol at −80° C. Occasionally they were thawed and enumerated by serial dilution and spreading on MHB II agar plates. The concentrations of the frozen stocks of E. coli and B. cereus strains were 1.0-1.1*10^8 CFU/mL with OD600 nm˜0.8. In case of other bacterial strains, they were grown on the days of experiment up to OD600 nm˜1-1.5 and then adjusted to OD600 nm˜0.8. The growth media of the drug-resistant bacterial strains were supplemented with few of the respective antibiotics against which they are resistant. 200 μL of the 0.8 OD600 nm culture were added to 10 mL of the respective buffer to obtain a suspension which was used to incubate with equal volumes of peptide solution in the same buffer.
# (§2) Antimicrobial assays in different phosphate buffers and serum were conducted by adapting, with necessary modifications a fast high-throughput method based on Virtual Colony Count technique and later modified by incorporating the use of resazurin. At first serial dilution of a microbial strain in respective buffer was poured in the wells of 96 well polypropylene microplate and was then added with same volume of 2× MHB II supplemented with 80 μg/mL resazurin and incubated at 35° C. in a Gemini EM Microplate Reader (Molecular Devices) overnight with intermittent shaking. As the microbe grows it reduces non-fluorescent resazurin to fluorescent resorufin and the fluorescent intensity of each well were measured (excitation=570 nm, emission=590 nm) each 5 min for 15 hours. The time (t, min) to reach a certain fluorescence (RFU=20000 with respect to the starting fluorescence) was correlated with the initial bacterial concentration (in CFU/mL) in the particular well to obtain a calibration plot of the form: Log([Bacteria],CFU/mL)=b+m*t Equation 4: […]
# (§3) To obtain antimicrobial efficacy of the peptides, 50 μL of serially diluted peptide in a buffer was incubated with 50 μL microbial suspension in the same buffer for 3 hours in black polypropylene 96 well plate. After incubation the wells were added with 100 μL of 2× MHB II supplemented with 80 μg/mL resazurin and then incubated with continuous fluorescence reading for overnight time period as described earlier. The surviving microbial population (CFU/mL) in each well were calculated by first finding the time to reach a fluorescence of RFU=20000 and the correlation (4) for the specific microbial strain and buffer. % Survival represents the proportion of viable cells in peptide treated cells relative to cells treated with the respective buffer alone. Equation 5: […]
# (§4) Finally, the antimicrobial effectiveness of each peptide against the particular microbial strain in the specific buffer was determined by plotting % microbial survival as a function of the log of the concentration of the peptide and fitting the resulting data to a variable-slope sigmoidal regression model (equation 6). […]
# (§5) ATRA1-R3W2-HYD, NA-CATH and PMB were evaluated for their effectiveness in mammalian serum conditions against pathogenic bacteria of both normal and drug-resistant strains. […]
# Pseudomonas aeruginosa = assay: Antimicrobial efficacy against ESKAPE pathogens; assay type: cell-based
# Method: as §1, §2, §3, §4, §5
# [2] = system: multi-drug resistant (MDR) Acinetobacter baumannii (ATCC BAA-1795); assay: Antimicrobial efficacy against ESKAPE pathogens; assay type: cell-based; conditions: mammalian serum
# Method: as §1, §2, §3, §4, §5
# ESKAPE pathogens = assay: Antimicrobial efficacy against ESKAPE pathogens (all other than P. aeruginosa); assay type: cell-based; conditions: mammalian serum; susceptible and drug-resistant strains
# Method: FIG. 8 is a graph showing antimicrobial efficacies of ATRA1-R3W2-HYD (blue), NA-CATH (dark orange) and PMB (green) against selected members of ESKAPE (Enterococcus faecium, Staphylococcus aureus, Klebsiella pneumoniae, Acinetobacter baumannii, Pseudomonas aeruginosa, and Enterobacter) pathogens. Both susceptible and drug-resistant strains were used. All the bacteria, except Pseudomonas aeruginosa, were tested under mammalian serum. P. aeruginosa results were obtained from testing in DPBS. The results are presented as mean of tests in triplicate with error-bars depicting the 95% confidence interval of the mean.
# Antimicrobial Studies. The phosphate buffers used for antimicrobial assays were supplemented with non-nitrogenous energy source, 0.1% (w/v) glucose. […]
# Antimicrobial assays in different phosphate buffers and serum were conducted by adapting, with necessary modifications a fast high-throughput method based on Virtual Colony Count technique and later modified by incorporating the use of resazurin. At first serial dilution of a microbial strain in respective buffer was poured in the wells of 96 well polypropylene microplate and was then added with same volume of 2× MHB II supplemented with 80 μg/mL resazurin and incubated at 35° C. in a Gemini EM Microplate Reader (Molecular Devices) overnight with intermittent shaking. […]
# [3] = system: H-358 lung epithelial cancer cells; assay: Cytotoxicity (Alamar blue); assay type: cell-based, human; conditions: ~6 hours, 10% fetal bovine serum
# Method: FIG. 12 is a graph showing comparison of toxicities against Lung Primary Epithelial cells and Lung Cancerous Epithelial Cells, derived from H358 cell-line. Non-linear regression analysis of six-hour cytotoxicity data was performed to identify the concentration to achieve 50% lethality (LD50) for each toxic peptide. Each peptide was tested in triplicate.
# Cytotoxicity. Cells were seeded in complete growth medium (Minimal Essential Medium, MEMα, supplemented with 10% Fetal Bovine Serum) into a culture-treated 96-well plate at a density of 25000 cells per well. After 24 hours, culture media was aspirated and replaced with media containing the selected peptide. No-serum experiments were conducted in Opti-MEM I reduced serum media (ThermoFisher, 31985062) and 10% serum experiments were performed in complete growth medium. In all cases, DBPS was used as a vehicle only control and buffer to serially dilute the peptides. After exposure to the peptides or vehicle-alone for the defined period, Alamar blue dye (resazurin) was added directly to the media and allowed to incubate for two hours. Following incubation, A570/A600 measurements were made to calculate reduction of resazurin dye to resorufin. A ratio of reduction in treated versus untreated cells was calculated in order to determine overall cell viability. The human cells were always maintained in a 37° C. incubator under 5% CO2. […]
sequence,measurement,setting,value
"RRWKRFFKRWKGGVIGVTFPF (SEQ ID NO: 50) [ATRA1-R3W2-HYD, ATRA1-R3W2 with hydrophobic tail of NA-CATH joined by -GG-]","antimicrobial effectiveness, in words",[1],effective in mammalian serum
same,"antimicrobial effectiveness, in words",Pseudomonas aeruginosa; DPBS,good bactericidal properties
same,"antimicrobial effectiveness, in words",Pseudomonas aeruginosa; mammalian serum,did not demonstrate antimicrobial effectiveness
same,"antimicrobial effectiveness, in words",[2],effective in mammalian serum
same,"antimicrobial effectiveness, in words",ESKAPE pathogens,"highly effective, though in lower degree than PMB"
same,LD50,[3],~24.5 µM
